# Columns and labels:
# [1] = Stability of danazol in analysis medium and receptor phase (3% cetrimide solution); assay type: physicochemical; conditions: analysis medium (mobile phase) and receptor phase (3% cetrimide solution)
# [2] = cited from earlier work
structure (smiles),measurement,setting,value
"C#C[C@]1(O)CC[C@H]2[C@@H]3CCC4=Cc5oncc5C[C@]4(C)[C@H]3CC[C@@]21C [Danazol, (17α)-Pregna-2,4-dien-20-yno[2,3-d]isoxazol-17β-ol]",Time for which danazol was stable,[1],30 h
same,Bioavailability of oral danazol,[2],11%

# From patent US20110118226A1 (priority 2008, published 2011)
